# Results as given in patent US9616107B2, “Therapy for kidney disease and/or heart failure” (priority 2011, dated 2017).
# Like-named read-outs stand apart in the source and are kept apart here. Ends that are not written are not given here.
# Assay: Toxicology study of VD in rats: 5-day continuous subcutaneous infusion by Alzet minipumps, plasma VD by radioimmunoassay, clinical observations
# Format: in vivo
# Conditions: for maximum tolerated dose for prolonged subcutaneous administration: expected; for Cmin: SC infusion 5 days
# Method: VD was administered to a rat model via a subcutaneous delivery route to assess the toxicity of VD and to determine if a lethal dosing amount of the VD can be reached by subcutaneous administration. As noted above, a maximum tolerated or lethal dosing amount was not observed for canines.
# VD-acetate (Bachem lot 2502022) was prepared in the Tris/Glycerin/m-cresol buffer at a concentration of 3 mg/mL or 15 mg/mL. The VD solution was administered continuously by subcutaneous infusion using Alzet® (Durect Corp.) osmotic minipumps (model 2002) over a period of 5 days to 3 study groups, where each study group (Groups 1-3) contained 3 male and 3 female Sprague Dawley rats.
# The continuous subcutaneous delivery dose for Group 1 was calibrated to yield an administration of approximately 100 ng/(kg·min) of VD, which is in the range of a dosing regimen useful for clinical use in humans. […] However, an estimated body weight of 250 g was used for all animals (males and females) for reporting pharmacokinetic and toxicological calculations; therefore, the estimated daily dose is reported as 0.144 mg/kg·day (or 100 ng/(kg·min)) for all animals in Group 1, and the total dose delivered to each animal over the 5-day period was 0.180 mg.
# The continuous subcutaneous delivery dose for Group 2 was calibrated to yield an administration of approximately 1000 ng/(kg·min) of VD, which is 10-fold higher than for Group 1. Each rat in Group 2 each had two Alzet pumps implanted to have a combined infusion rate was 1.0 μL/hr of the 15 mg/mL VD solution. The resulting actual mean weight-based doses were 1.026 and 1.629 mg/(kg·day) for males and females, respectively. For the pharmacokinetic calculations, an estimated body weight of 280 g was used for all animals (males and females); therefore, the estimated daily dose was reported as 1.29 mg/(kg·day) (or ˜896 ng/(kg·min)) for all animals in Group 2, and the total dose delivered to each animal over the 5 day period was 1.8 mg.
# The continuous subcutaneous delivery dose for Group 3 was calibrated to yield an administration of approximately 2000 ng/(kg·min). Each rat each had four Alzet pumps implanted for a combined infusion rate was 2.0 μL/hr of the 15 mg/mL VD solution. The resulting actual mean weight-based doses were 1.870 and 3.303 mg/(kg·day) for males and females, respectively. For pharmacokinetic calculations, an estimated body weight of 300 g was used for all animals (males and females); therefore the estimated daily dose was reported as 2.4 mg/(kg·day) (or (or ˜1667 ng/(kg·min)) for all animals in Group 3, and the total dose delivered to each animal for the 5 day period was 3.6 mg. The dosing for Groups 1-3 is summarized in Table 5.
# All animals in Groups 1-3 were observed twice daily for mortality and moribund appearance during the 5-day dosing period and during an at least 16-day pretest period. Clinical examinations were performed daily for all animals following surgery to implant the Alzet pumps. Detailed physical examinations were conducted on all animals approximately weekly during a pretest period of at least 16 days, prior to beginning dosing (Day 0), and on Day 5 prior to euthanasia. Individual body weights were recorded at least weekly during the pretest period, on Day 0 prior to dosing, and on Day 5 prior to euthanasia. Individual food consumption was recorded approximately weekly during the pretest period, on Day 0 prior to dosing, and on Day 5 prior to euthanasia. Blood samples for determination of plasma drug concentration were collected from all animals at approximately 4, 8, and 24 hours after pump implantation on Day 0 and immediately prior to euthanasia on Day 5 (120 hours after the start of dosing). Blood was collected via the retro-orbital sinus from animals anesthetized with isoflurane into chilled tubes containing K3-EDTA. Following the final blood collection, the animals were euthanized and discarded. […]
# [1] = female, Sprague Dawley, rat, in vivo, sc, 0.18 mg
# [2] = female, Sprague Dawley, rat, in vivo, sc, 1.8 mg
# [3] = female, Sprague Dawley, rat, in vivo, sc, 3.6 mg
sequence,measurement,setting,value
"EVVPPQVLSEPNEEAGAALSPLPEVPPWTGEVSPAQR [VD, Vessel Dilator]",level at 8 h,"Sprague Dawley, rat, in vivo, sc, 0.18 mg total dose, male rats N=3, 0.180 mg, 8 hours post-dosing, read-out: Mean concentration of vessel dilator in plasma",11.9 ng/mL
same,level at 4 h,"Sprague Dawley, rat, in vivo, sc, 0.18 mg, male rats N=3, 0.180 mg, 4 hours post-dosing (from start of infusion), read-out: Mean concentration of vessel dilator in plasma",17.1 ng/mL
same,level at 24 h,"Sprague Dawley, rat, in vivo, sc, 0.18 mg, male rats N=3, 0.180 mg, 24 hours post-dosing, read-out: Mean concentration of vessel dilator in plasma",13.3 ng/mL
same,level at 120 h,"Sprague Dawley, rat, in vivo, sc, 0.18 mg, male rats N=3, 0.180 mg, 120 hours post-dosing, all samples, read-out: Mean concentration of vessel dilator in plasma",78.6 ng/mL
same,level at 8 h,"Sprague Dawley, rat, in vivo, sc, 1.8 mg total dose, male rats N=3, 1.80 mg, 8 hours post-dosing, read-out: Mean concentration of vessel dilator in plasma",204 ng/mL
same,level at 4 h,"Sprague Dawley, rat, in vivo, sc, 1.8 mg, male rats N=3, 1.80 mg, 4 hours post-dosing, read-out: Mean concentration of vessel dilator in plasma",62.3 ng/mL
same,level at 24 h,"Sprague Dawley, rat, in vivo, sc, 1.8 mg, male rats N=3, 1.80 mg, 24 hours post-dosing, read-out: Mean concentration of vessel dilator in plasma",167 ng/mL
same,level at 120 h,"Sprague Dawley, rat, in vivo, sc, 1.8 mg, male rats N=3, 1.80 mg, 120 hours post-dosing, read-out: Mean concentration of vessel dilator in plasma",214 ng/mL
same,level at 4 h,"Sprague Dawley, rat, in vivo, sc, 3.6 mg, male rats N=3, 3.60 mg, 4 hours post-dosing, read-out: Mean concentration of vessel dilator in plasma",370 ng/mL
same,level at 8 h,"Sprague Dawley, rat, in vivo, sc, 3.6 mg, male rats N=3, 3.60 mg, 8 hours post-dosing, read-out: Mean concentration of vessel dilator in plasma",255 ng/mL
same,level at 24 h,"Sprague Dawley, rat, in vivo, sc, 3.6 mg, male rats N=3, 3.60 mg, 24 hours post-dosing, read-out: Mean concentration of vessel dilator in plasma",168 ng/mL
same,level at 120 h,"Sprague Dawley, rat, in vivo, sc, 3.6 mg, male rats N=3, 3.60 mg, 120 hours post-dosing, read-out: Mean concentration of vessel dilator in plasma",261 ng/mL
same,maximum tolerated dose for prolonged subcutaneous administration,female rats,> 2300 ng/kg·min
same,level at 4 h,[1],27.5 ng/mL
same,level at 8 h,[1],31.6 ng/mL
same,level at 24 h,[1],33.2 ng/mL
same,level at 120 h,[1],27.1 ng/mL
same,level at 4 h,[2],135 ng/mL
same,level at 8 h,[2],275 ng/mL
same,level at 24 h,[2],320 ng/mL
same,level at 120 h,[2],265 ng/mL
same,level at 4 h,[3],725 ng/mL
same,level at 8 h,[3],454 ng/mL
same,level at 24 h,[3],427 ng/mL
same,level at 120 h,[3],567 ng/mL
same,Cmin,"male rats, 1.80 mg total dose",62.3 ng/mL
same,Cmin,"male rats, 3.60 mg total dose",167 ng/mL
same,maximum tolerated dose for prolonged subcutaneous administration,male rats,above 1300 ng/kg·min
same,Tmax,"male, Sprague Dawley, rat, in vivo, sc, Tmax",81.3 h
same,clinical signs of toxicity,"rat, in vivo",None of the animals in Groups 1-3 showed clinical signs of toxicity
same,plasma concentration up to which no toxicity issues were shown,"rat, in vivo, sc",approx. 740 ng/mL
same,AUCτ of Group 3 females compared to Group 3 males,"rats, 3.60 mg, similar when normalized to weight",up to 2 fold
same,"clinical observations, body weight gain, food consumption","rats, 5-day dosing period","no remarkable clinical observations, effects on body weight gain or effects on food consumption"
same,survival,"rats, Groups 1-3",all animals survived until euthanasia
